Twelve molecules from ChEMBL document CHEMBL1201862, “PubChem BioAssay data set” (2004) can be followed below.

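In this assay, cells in 96-well plates receive the compound at five concentrations for 48 hours. Endpoints are linearly interpolated between the surrounding concentrations. The concentration for 50% growth inhibition is given as GI50.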 Active and inactive are the calls of the source. No stated cut-off is given here; in the data, active = GI50 up to about 1.1 µM and inactive = higher.

What is called GI50 is the concentration that inhibits growth by half.

Some test systems named below: LOX IMVI; A498; NCI-H522; IGROV-1; OVCAR-8; UACC-257; TK-10; OVCAR-5; OVCAR-3; UACC-62; HCT-15; BT-549; EKVX; 786-0; RXF 393; SK-MEL-5; CCRF-CEM; COLO 205; HOP-92.
Common to all, as to test: DTP human tumour cell line panel, 48 h

With `O=C(O)CCC(=O)c1ccc2sc3ccccc3c2c1`, the GI50 in the experiment on LOX IMVI is > 100 µM (inactive); in the experiment with A498 it was 27.9 µM (inactive); in the experiment with NCI-H522, > 100 µM (inactive); with IGROV-1, > 100 µM (inactive); with OVCAR-8, > 100 µM (inactive); in the experiment on UACC-257, > 100 µM (inactive). For the same molecule, the GI50 in the experiment with TK-10 was 91.6 µM (inactive); with OVCAR-5 it was > 100 µM (inactive); with OVCAR-3, > 100 µM (inactive); in the experiment on UACC-62 it was > 100 µM (inactive); in the experiment on HCT-15, greater than 100 µM; in the experiment with BT-549, > 100 µM (inactive). For the same molecule, the GI50 in the experiment with EKVX is > 100 µM (inactive); in the experiment with 786-0, > 100 µM (inactive); with RXF 393, > 100 µM (inactive); in the experiment on SK-MEL-5, > 100 µM (inactive); with CCRF-CEM, 0.225 µM (active); with COLO 205, > 100 µM (inactive).

For the molecule `CN(C)S(=O)(=O)c1nc(Cl)c2nc[nH]c2n1`, the GI50 in the experiment on LOX IMVI, in the experiment on A498, with NCI-H522, with IGROV-1, in the experiment with OVCAR-8 and in the experiment with UACC-257 was > 100 µM (inactive) in each case. In addition, the GI50 with TK-10 was > 100 µM (inactive); in the experiment on OVCAR-5 it was > 100 µM (inactive); in the experiment with OVCAR-3 it was > 100 µM (inactive); in the experiment with UACC-62 it was > 100 µM (inactive); in the experiment on HCT-15, greater than 100 µM; in the experiment with BT-549 it was > 100 µM (inactive). The GI50 was > 100 µM (inactive) in the experiment on EKVX; > 100 µM (inactive) in the experiment with 786-0; 55.7 µM (inactive) with RXF 393; > 100 µM (inactive) in the experiment with SK-MEL-5; > 100 µM (inactive) in the experiment on CCRF-CEM; > 100 µM (inactive) in the experiment on COLO 205.

As for `CCCCN(CCCC)C(=C(C(Cl)=C(Cl)Cl)[N+](=O)[O-])N(CCCC)CCCC`, the GI50 in the experiment on A498 is > 100 µM (inactive); with NCI-H522, 48.3 µM (inactive); with UACC-257, 32.1 µM (inactive); with TK-10, > 100 µM (inactive); in the experiment on OVCAR-5, 85.5 µM (inactive); in the experiment on OVCAR-3, 37.2 µM (inactive). Also, the GI50 in the experiment on UACC-62 was 87.3 µM (inactive); with HOP-92, 90.8 µM (inactive); in the experiment with HCT-15, 98.6 µM; with BT-549, > 100 µM (inactive); in the experiment with EKVX, 67.5 µM (inactive); in the experiment on 786-0 it was > 100 µM (inactive). Moreover, the GI50 in the experiment on SK-MEL-5 and in the experiment with COLO 205 was > 100 µM (inactive) each time.

Turning to `O=c1[nH]c2cccc([N+](=O)[O-])c2c(=O)n1-c1ccc(Cl)cc1`, the GI50 was 16.1 µM (inactive) with LOX IMVI; 13.9 µM (inactive) in the experiment on A498; 16.7 µM (inactive) in the experiment with IGROV-1; 11.8 µM (inactive) in the experiment with OVCAR-8; 11.5 µM (inactive) in the experiment on UACC-257; 14.9 µM (inactive) in the experiment with TK-10. Besides, the GI50 was 16.3 µM (inactive) in the experiment with OVCAR-5; 10.8 µM (inactive) in the experiment on OVCAR-3; 5.3 µM (inactive) in the experiment with UACC-62; 18.5 µM (inactive) with HOP-92; 12.1 µM in the experiment on HCT-15; 10.7 µM (inactive) in the experiment with BT-549. For the same molecule, the GI50 is 10.8 µM (inactive) in the experiment with EKVX; 19.8 µM (inactive) in the experiment with 786-0; 17.1 µM (inactive) in the experiment on RXF 393; 9.71 µM (inactive) in the experiment on SK-MEL-5; 17.4 µM (inactive) in the experiment on CCRF-CEM; 4.24 µM (inactive) with COLO 205.

For `COc1cccc(NC(=O)CC(=O)Nc2cccc(OC)c2)c1`, the GI50 with LOX IMVI, with A498, in the experiment with NCI-H522, with IGROV-1, in the experiment on OVCAR-8 and with UACC-257 was > 100 µM (inactive) throughout. For the same molecule, the GI50 in the experiment with TK-10 was > 100 µM (inactive); in the experiment on OVCAR-3, > 100 µM (inactive); in the experiment on UACC-62 it was > 100 µM (inactive); in the experiment with HOP-92, > 100 µM (inactive); with HCT-15, greater than 100 µM; in the experiment with BT-549, > 100 µM (inactive). The GI50 in the experiment with EKVX, with 786-0, in the experiment on SK-MEL-5, with CCRF-CEM and with COLO 205 was > 100 µM (inactive) each time.

As for `C(=C/CCCN1O[C@@H](CCCCCCCCc2cccnc2)[C@H]2CCC[C@H]21)/CCCCCCCCCc1cccnc1`, the GI50 is 12.7 µM (inactive) in the experiment with LOX IMVI; 22.1 µM (inactive) with A498; 30.5 µM (inactive) with IGROV-1; 31.6 µM (inactive) in the experiment on OVCAR-8; 14.6 µM (inactive) in the experiment with UACC-257; 18.4 µM (inactive) with TK-10. For the same molecule, the GI50 was 20 µM (inactive) with OVCAR-5; 17.1 µM (inactive) with OVCAR-3; 20.9 µM (inactive) with UACC-62; 13.2 µM (inactive) in the experiment with HOP-92; 24.8 µM in the experiment on HCT-15; 33 µM (inactive) in the experiment with BT-549. The GI50 in the experiment with EKVX is 4.48 µM (inactive); in the experiment on 786-0 it was 18.7 µM (inactive); in the experiment with RXF 393, 17.1 µM (inactive); in the experiment with SK-MEL-5 it was 17.5 µM (inactive); in the experiment with CCRF-CEM it was 15.7 µM (inactive); in the experiment on COLO 205, 14.9 µM (inactive).

Turning to `CC(C)(C)n1[nH]c(=O)n(C(C)(C)C)c1=O`, the GI50 in the experiment on LOX IMVI, with A498, in the experiment on UACC-257, in the experiment on TK-10, with OVCAR-5 and in the experiment on OVCAR-3 was > 100 µM (inactive) in each case. The GI50 in the experiment with UACC-62 was > 100 µM (inactive); with HOP-92, > 100 µM (inactive); in the experiment with HCT-15, greater than 100 µM; in the experiment with BT-549 it was > 100 µM (inactive); with 786-0 it was > 100 µM (inactive); in the experiment on RXF 393, > 100 µM (inactive). For the same molecule, the GI50 in the experiment with SK-MEL-5 is > 100 µM (inactive); with CCRF-CEM it was > 10 µM (inactive); in the experiment on COLO 205, > 100 µM (inactive).

`O=C1Nc2ccccc2NC1C1OC(c2ccccc2)=CC1=O` (stereo not drawn): the GI50 with LOX IMVI was > 100 µM (inactive); in the experiment with A498, > 100 µM (inactive); in the experiment on IGROV-1, > 100 µM (inactive); with OVCAR-8, > 100 µM (inactive); with UACC-257, 40.8 µM (inactive); in the experiment on TK-10 it was > 100 µM (inactive). Besides, the GI50 is > 100 µM (inactive) in the experiment on OVCAR-5; > 100 µM (inactive) in the experiment with OVCAR-3; > 100 µM (inactive) in the experiment with UACC-62; > 100 µM (inactive) with HOP-92; greater than 100 µM in the experiment on HCT-15; > 100 µM (inactive) with BT-549. For the same molecule, the GI50 in the experiment on EKVX, with 786-0, in the experiment on RXF 393, in the experiment with SK-MEL-5, in the experiment on CCRF-CEM and in the experiment on COLO 205 was > 100 µM (inactive) each time.

Take `COc1ccc(C(c2ccc(OC)cc2)N2C(=O)CCC2C(=O)O)cc1` (stereo not drawn): the GI50 in the experiment on LOX IMVI, with A498, with NCI-H522, in the experiment with IGROV-1, with OVCAR-8 and with UACC-257 was > 100 µM (inactive) in each case. Further, the GI50 with TK-10 was > 100 µM (inactive); in the experiment with OVCAR-5 it was > 100 µM (inactive); with OVCAR-3, > 100 µM (inactive); with UACC-62 it was > 100 µM (inactive); with HOP-92, > 100 µM (inactive); in the experiment on HCT-15 it was greater than 100 µM. Moreover, the GI50 in the experiment on BT-549, in the experiment on EKVX, with 786-0, in the experiment with SK-MEL-5, in the experiment on CCRF-CEM and in the experiment with COLO 205 was > 100 µM (inactive) each time.

For `CC1(c2cccs2)CC(c2cccs2)=C(C#N)C(=C(C#N)C#N)N1` (stereo not drawn), the GI50 in the experiment with LOX IMVI was 16.1 µM (inactive); in the experiment on A498 it was 18.7 µM (inactive); in the experiment on IGROV-1 it was 17.7 µM (inactive); in the experiment on OVCAR-8, 17.3 µM (inactive); with UACC-257, 17.6 µM (inactive); with TK-10, 21 µM (inactive). Further, the GI50 was 21.5 µM (inactive) in the experiment on OVCAR-5; 16.3 µM (inactive) in the experiment with OVCAR-3; 15 µM (inactive) in the experiment with UACC-62; 14.8 µM (inactive) in the experiment with HOP-92; 16.4 µM in the experiment on HCT-15; 21.5 µM (inactive) in the experiment on BT-549. For the same molecule, the GI50 with EKVX is 18.1 µM (inactive); in the experiment on 786-0, 17.3 µM (inactive); with RXF 393, 18.3 µM (inactive); with SK-MEL-5, 14.6 µM (inactive); in the experiment with CCRF-CEM, 0.519 µM (active); with COLO 205 it was 16.9 µM (inactive).

Take `CCCC(=O)OC1CC(n2cc(F)c(=O)[nH]c2=O)OC1CO` (stereo not drawn): the concentration for 50% growth inhibition (GI50) with LOX IMVI is 0.0149 µM (active); with A498 it was 2.07 µM (inactive); with NCI-H522 it was 6.34 µM (inactive); in the experiment on IGROV-1, > 5.89 µM (inactive); in the experiment on OVCAR-8, 0.171 µM (active); with UACC-257, > 4.49 µM (inactive). Moreover, the GI50 was > 2.67 µM (inactive) in the experiment with TK-10; > 10 µM (inactive) in the experiment with OVCAR-5; 3.69 µM (inactive) in the experiment on OVCAR-3; 0.0863 µM (active) in the experiment on UACC-62; greater than 7.64 µM in the experiment on HCT-15; 0.726 µM (active) in the experiment with BT-549. Also, the GI50 was > 10 µM (inactive) with EKVX; 0.342 µM (active) in the experiment with 786-0; > 5.79 µM (inactive) in the experiment on RXF 393; 0.329 µM (active) in the experiment on SK-MEL-5; 0.0355 µM (active) with CCRF-CEM; 4.71 µM (inactive) with COLO 205.

`CCCCCCCCOP(=O)(O)OP(=O)(O)OCC1OC(n2ccc(N)nc2=O)C(O)C1O` (stereo not drawn): the GI50 with LOX IMVI, in the experiment with A498, with IGROV-1, in the experiment on OVCAR-8, with UACC-257 and in the experiment with TK-10 was > 100 µM (inactive) in each case. In addition, the GI50 in the experiment with OVCAR-5 is > 100 µM (inactive); with OVCAR-3 it was > 100 µM (inactive); in the experiment with UACC-62, > 100 µM (inactive); with HOP-92, > 100 µM (inactive); in the experiment on HCT-15, greater than 100 µM; in the experiment with BT-549 it was > 100 µM (inactive). Moreover, the GI50 in the experiment with EKVX, in the experiment on 786-0, in the experiment on RXF 393, in the experiment with SK-MEL-5, in the experiment with CCRF-CEM and with COLO 205 was > 100 µM (inactive) each time.
